Paper PMC10759609, “A novel PDPN antagonist peptide CY12-RP2 inhibits melanoma growth via Wnt/β-catenin and modulates the immune cells” (Journal of Experimental & Clinical Cancer Research : CR, 2024)

Columns and labels:
[1] = system: A875 PDPN overexpression cells; experiment: Wound healing, PDPN-overexpressing A875 cells; type: cell-based; settings: A875 with PDPN overexpression
Protocol: (§1) A375 GFP, A875 GFP, A375 PDPN^−/−, and A875 PDPN^+/+ cells were all seeded in 12-well plates at a density of 5 × 10^5 cells/well. When the cells reached 100% confluence the next day, the straight wound was scraped in each cultured well with a 20 µL pipette tip. Then the cells were washed repeatedly with complete DMEM to remove the cellular debris, and the medium was changed to a low serum medium containing 0.05% FBS. The scratch-treated cells were subsequently cultured for an additional indicated time and imaged at 0 h, 12 h, 24 h and 48 h. Quantification of wound closure was accomplished by measuring the distance between the phase contrast images’ anterior edges of the contralateral surfaces using ImageJ software. As for peptide (CY12-RP2) function experiments, images of phase contrast for A375 GFP and A875 GFP cells were captured at 0 h before peptide administration. The cells were then treated with CY12-RP2 (0 μM, 5 μM, 25 μM) for 24 h or 48 h, and then images were acquired again. Handling of the experimental results were carried out as previously described.
(§2) To confirm whether PDPN could affect migration and invasion of melanoma cells in wnt/β-catenin signaling pathway-dependent manner, A375 cells with PDPN knockdown were treated with a Wnt/β-catenin signaling pathway agonist (SKL2001) and PDPN overexpression A875 cells were treated with an inhibitor (IWR1). […]

[2] = system: A875 PDPN overexpression cells; experiment: Transwell, PDPN-overexpressing A875 cells; type: cell-based; settings: A875 with PDPN overexpression
Protocol: (§3) For invasion assay, matrigel (Corning, New York, USA) was coated on the upper surface of the upper chamber. The upper chamber was filled with DMEM medium containing 2% FBS, while the lower chamber contained a medium supplemented with 20% FBS. In brief, melanoma cells (A375 GFP, A875 GFP, A375 PDPN^−/−, and A875 PDPN^+/+ cells) were seeded in the upper chamber of the transwell plate (Corning, New York, USA) at about 5 × 10^4 cells/well with the medium as described above. For peptide functionality experiments, A375 and A875 cells were seeded in the upper chamber of the transwell plate at a density of 5 × 10^4 cells/well with various peptide concentrations (0 μM, 5 μM, 25 μM). Transwell inserts were fixed using 4% paraformaldehyde after 48 h cell invasion, and crystalline violet was used for staining. The quantities of invading cells were quantified using ImageJ software (NIH).
as §2

[3] = system: EMT in A875 PDPN overexpression cells; experiment: Western blot EMT proteins, PDPN-overexpressing A875 cells; type: cell-based
Protocol: (§4) Melanoma cells were cultured in a 60 mm dish with a complete medium and various peptide concentrations (0 μM, 5 μM, 25 μM). Protein was extracted after cells were cultured or treated for 48 h using protein lysis buffer, separated using a 10% or 15% Bis–Tris PAGE gel (Epizyme Biomedical Technology, Shanghai, China), and transferred onto a PVDF membrane (Thermo Fisher Scientific) according to standard techniques. The Western blots were imaged using Bio-rad Chemidoc MP and quantified using ImageJ software (NIH).
(§5) To confirm whether PDPN could affect migration and invasion of melanoma cells in wnt/β-catenin signaling pathway-dependent manner, A375 cells with PDPN knockdown were treated with a Wnt/β-catenin signaling pathway agonist (SKL2001) and PDPN overexpression A875 cells were treated with an inhibitor (IWR1). […] Furthermore, the levels of EMT positively correlated proteins, including N-cadherin, vimentin and snail were all suppressed, while E-cadherin was increased in A375 cells transfected with LV-shPDPN, and these phenomena were reversed following treatment with SKL2001 (Fig. S2E). In contrast, in the A875 cells, the activation of EMT by PDPN overexpression was blocked by IWR1 (Fig. S2E).

[4] = system: A375 PDPN knockdown cells; experiment: Transwell, PDPN-knockdown A375 cells; type: cell-based; settings: A375 with PDPN knockdown
Protocol: as §3, §2

melanoma cells [5] = experiment: Transwell invasion with SKL2001, melanoma cell lines; type: cell-based; settings: combined with CY12-RP2
Protocol: as §3, with “(NIH). […]” for “(NIH).”
(§6) (A) TUNEL analysis of apoptosis was conducted on orthotopic xenografts tumor sections using fluorescence staining. […] (B) Fluorescence staining of Ki67 was carried out on orthotopic xenograft tumor sections.
(§7) The power field scale bar, 100 μm. (C) Serum His-CY12-RP2 levels of the orthotopic xenografts mice treated by various dosage of CY12-RP2 were measured by His-ELISA kit. […]
(§8) kit. (E) Serum ALT, AST, TG, and γ-GT levels of the orthotopic xenografts model were measured by ELISA. […]

[6] = system: Wnt/β-catenin signaling pathway; experiment: Western blot, EMT and Wnt/β-catenin pathway, melanoma cells; type: cell-based; settings: combined with CY12-RP2; SKL2001 50 μM; Western blot
Protocol: as §4
Fig. S4: The inhibition of cells metastasis and invasion by CY12-RP2 can be […]
(A, B) The inhibition of CY12-RP2 on the migration capacity of melanoma cell lines was reversed by SKL2001 (A). Statistical analysis was performed to determine the migrated distance (B). The power field scale bar, 100 μm. (C, D) Effect of CY12-RP2 on the invasive ability of melanoma cell lines were reversed by SKL2001 (C). […]
as §6, §7, §8

melanoma cells [7] = experiment: Wound healing with SKL2001, melanoma cell lines; type: cell-based; settings: combined with CY12-RP2
Protocol: as §1, with “The cells were then treated with CY12-RP2 (0 μM, 5 μM, 25 μM) for 24 h or 48 h, and then images were acquired again. Handling of the experimental results were carried out as previously described.” left out
as §6, §7, §8

[8] = system: A375 PDPN knockdown cells; experiment: Wound healing, PDPN-knockdown A375 cells; type: cell-based; settings: A375 with PDPN knockdown
Protocol: as §1, §2

[9] = system: EMT proteins in A375 LV-shPDPN cells; experiment: Western blot EMT proteins, PDPN-knockdown A375 cells; type: cell-based
Protocol: as §4, §5

melanoma = settings: in vitro and in vivo; cited from earlier work
Excerpt: Therapeutic peptides are a novel and promising type of anti-cancer drug, due to several important advantages over proteins or antibodies: they are molecularly small, easy to synthesize, and capable of penetrating cell membranes; they also have high biological activity, affinity, chemical diversity, and specificity. Phage display technology is a high-throughput screening technique that greatly amplifies the application of directional evolution techniques for antibody and peptide modification screening, and first described in 1985 by Smith. Phage display inserts th ...

Question: What does the source list for `O=C(Nc1cccc2cccnc12)c1ccc(N2C(=O)[C@@H]3[C@H](C2=O)[C@@H]2C=C[C@H]3C2)cc1` [IWR1]?
Answer: promotion of migration by PDPN overexpression [1]: inhibited; increase of invasion mediated by PDPN overexpression [2]: abrogated; activation of EMT by PDPN overexpression [3]: blocked

Question: Which “decrease of invasion mediated by PDPN knockdown” value [4] does the source give for `O=C(NCCCn1ccnc1)c1cc(-c2ccco2)on1` [SKL2001] here?
Answer: The value was “abrogated”.

Question: And the “effect of SKL2001 on CY12-RP2 inhibition of invasion” value (melanoma cells [5])?
Answer: Its value is “significantly reversed”.

Question: And the “effect of SKL2001 on CY12-RP2 inhibition of EMT and Wnt/β-catenin signaling” value [6]?
Answer: The value was “significantly reversed”.

Question: What about the “effect of SKL2001 on CY12-RP2 inhibition of migration” value (melanoma cells [7]) of the same compound?
Answer: The value was “significantly reversed”.

Question: What about the “inhibition of migration by PDPN knockdown” value [8] of the same compound?
Answer: The value was “abolished”.

Question: And the “changes of N-cadherin, vimentin, snail and E-cadherin by LV-shPDPN” value [9]?
Answer: Its value is “reversed”.

Question: For “[-CSSRTMHHC-] [peptide screened by C7C phage display library]”, which “melanoma growth and invasion” value (melanoma) is on record?
Answer: The value was “suppress melanoma growth and invasion both in vitro and in vivo”.
